Source: ChEMBL document CHEMBL1132959, “Design of potent dicyclic (1-5/4-10) gonadotropin releasing hormone (GnRH) antagonists” (J Med Chem, 2000)
pKi: −log10 of the molar value.

Biological target: T1, Gonadotropin-releasing hormone receptor (Rattus norvegicus, UniProt P30969)
T1 sequence (P30969 whole entry): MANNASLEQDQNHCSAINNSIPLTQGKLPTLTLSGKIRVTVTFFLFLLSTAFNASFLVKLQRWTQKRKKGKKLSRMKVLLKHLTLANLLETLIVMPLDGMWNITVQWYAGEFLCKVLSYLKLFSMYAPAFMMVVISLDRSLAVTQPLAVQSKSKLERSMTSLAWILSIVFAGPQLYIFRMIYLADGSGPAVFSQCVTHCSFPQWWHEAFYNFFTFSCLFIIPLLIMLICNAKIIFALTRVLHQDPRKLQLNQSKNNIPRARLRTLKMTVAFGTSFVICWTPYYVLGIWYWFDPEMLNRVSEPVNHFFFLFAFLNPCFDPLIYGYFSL
Experiment: Affinity for rat gonadotrophin releasing hormone (GnRH) receptor using HEK293 cells transfected with rat Gonadotropin-releasing hormone receptor
Format: cell-based
Settings: hek293

pKi | Compound
7.17 | CC(=O)N[C@H](Cc1ccc2ccccc2c1)C(=O)N[C@@H]1CC(=O)NC[C@@H](C(=O)N2CCC[C@H]2C(=O)N[C@H](C)C(N)=O)NC(=O)[C@H](CC(C)C)NC(=O)[C@@H](Cc2ccc3ccccc3c2)NC(=O)[C@H](CCCNC(=N)N)NC(=O)[C@H](C)NC(=O)[C@@H](Cc2cccnc2)NC1=O [listing 1 of 2 here]
6.96 | CC(=O)N[C@H](Cc1ccc2ccccc2c1)C(=O)N[C@@H]1CCC(=O)NCCCC[C@@H](C(=O)N2CCC[C@H]2C(=O)N[C@H](C)C(N)=O)NC(=O)[C@H](CC(C)C)NC(=O)[C@@H](Cc2ccc3ccccc3c2)NC(=O)[C@H](CCCN=C(N)N)NC(=O)[C@H](C)NC(=O)[C@@H](Cc2cccnc2)NC1=O
7.64 | CC(=O)N[C@H](Cc1ccc2ccccc2c1)C(=O)N[C@H](Cc1ccc(Cl)cc1)C(=O)N[C@@H]1CCC(=O)NCCCC[C@@H](C(=O)N2CCC[C@H]2C(=O)N[C@H](C)C(N)=O)NC(=O)[C@H](CC(C)C)NC(=O)[C@@H](Cc2ccc3ccccc3c2)NC(=O)[C@H](CCCNC(=N)N)NC(=O)[C@H](CO)NC1=O
7.21 | CC(=O)N[C@H]1CCC(=O)NCCCC[C@@H](C(=O)N2CCC[C@H]2C(=O)N[C@@H](C)C(N)=O)NC(=O)[C@H](CC(C)C)NC(=O)[C@H](Cc2ccc3ccccc3c2)NC(=O)[C@H](CCCNC(=N)N)NC(=O)[C@H](C)NC(=O)[C@H](Cc2cccnc2)NC(=O)[C@H](Cc2ccc(Cl)cc2)NC1=O
7.77 | CC(=O)N[C@H](Cc1ccc2ccccc2c1)C(=O)N[C@H](Cc1ccc(Cl)cc1)C(=O)N[C@@H]1CC(=O)NCCCC[C@@H]2NC(=O)[C@H](CC(C)C)NC(=O)[C@@H](CCCNC(=N)N)NC(=O)[C@H](Cc3ccc(O)cc3)NC(=O)[C@H](CC(=O)NC[C@@H](C(N)=O)NC(=O)[C@@H]3CCCN3C2=O)NC1=O
7.68 | CC(C)C[C@@H]1NC(=O)[C@@H](Cc2ccc3ccccc3c2)NC(=O)[C@H](CCCNC(=N)N)NC(=O)[C@H](C)NC(=O)[C@@H](Cc2cccnc2)NC(=O)[C@@H](Cc2ccc(Cl)cc2)NC(=O)[C@@H](Cc2ccc3ccccc3c2)NC(=O)CCC(=O)NCCCC[C@@H](C(=O)N2CCC[C@H]2C(=O)N[C@H](C)C(N)=O)NC1=O
7.82 | CC(=O)N[C@H](Cc1ccc2ccccc2c1)C(=O)N[C@@H]1CCC(=O)NCCCC[C@@H]2NC(=O)[C@H](CC(C)C)NC(=O)[C@@H](Cc3ccc4ccccc4c3)NC(=O)[C@H](CCCN=C(N)N)NC(=O)[C@H](CC(=O)NC[C@@H](C(N)=O)NC(=O)[C@@H]3CCCN3C2=O)NC(=O)[C@@H](Cc2cccnc2)NC1=O [listing 1 of 2 here]

The next lines start with the molecule.

Compound | pKi
CC(=O)N[C@H]1CC(=O)NCC(=O)NCC[C@H]2NC(=O)[C@H](CC(=O)NC[C@@H](C(N)=O)NC(=O)[C@@H]3CCCN3C(=O)[C@H](CCCN=C(N)N)NC(=O)[C@H](CC(C)C)NC(=O)[C@@H](Cc3ccc4ccccc4c3)NC2=O)NC(=O)[C@@H](Cc2c[nH]c3ccccc23)NC(=O)[C@@H](Cc2ccc(Cl)cc2)NC1=O | 8.51
CC(=O)N[C@H](Cc1ccc2ccccc2c1)C(=O)N[C@H](Cc1ccc(F)cc1)C(=O)N[C@H](Cc1cccnc1)C(=O)N[C@H]1CC(=O)NC[C@@H](C(N)=O)NC(=O)[C@@H]2CCCN2C(=O)[C@@H]2CCNC(=O)CNC(=O)CC[C@H](NC1=O)C(=O)N[C@H](CCCN=C(N)N)C(=O)N[C@@H](CC(C)C)C(=O)N2 | 9.92
CC(=O)N[C@H](Cc1ccc2ccccc2c1)C(=O)N[C@H](Cc1ccc(F)cc1)C(=O)N[C@H](Cc1c[nH]c2ccccc12)C(=O)N[C@H]1CC(=O)NC[C@@H](C(N)=O)NC(=O)[C@@H]2CCCN2C(=O)[C@@H]2CCCCNC(=O)CC[C@H](NC1=O)C(=O)N[C@H](CCCN=C(N)N)C(=O)N[C@@H](CC(C)C)C(=O)N2 | 9.49

Species: Rattus norvegicus
Experiment: Antiovulatory potency at 1000 ug/rat expressed as rats ovulating by total no. of rats (4/4)
Format: functional
Settings: not given

Compound | Ovulating rats
CC(=O)N[C@H](Cc1ccc2ccccc2c1)C(=O)N[C@H](Cc1ccc(Cl)cc1)C(=O)N[C@@H]1CC(=O)NC[C@@H](C(=O)N2CCC[C@H]2C(=O)N[C@H](C)C(N)=O)NC(=O)[C@H](CC(C)C)NC(=O)[C@@H](Cc2ccc3ccccc3c2)NC(=O)[C@H](CCCN=C(N)N)NC(=O)[C@H](C)NC1=O | 4
CC(=O)N[C@H]1CCC(=O)NCCCC[C@@H](C(=O)N2CCC[C@H]2C(=O)N[C@@H](C)C(N)=O)NC(=O)[C@H](CC(C)C)NC(=O)[C@H](Cc2ccc3ccccc3c2)NC(=O)[C@H](CCCNC(=N)N)NC(=O)[C@H](C)NC(=O)[C@H](Cc2cccnc2)NC(=O)[C@H](Cc2ccc(Cl)cc2)NC1=O | 4
CC(=O)N[C@H](Cc1ccc2ccccc2c1)C(=O)N[C@@H]1CC(=O)NC[C@@H](C(=O)N2CCC[C@H]2C(=O)N[C@H](C)C(N)=O)NC(=O)[C@H](CC(C)C)NC(=O)[C@@H](Cc2ccc3ccccc3c2)NC(=O)[C@H](CCCNC(=N)N)NC(=O)[C@H](C)NC(=O)[C@@H](Cc2cccnc2)NC1=O [listing 2 of 2 here] | 4
CC(=O)N[C@H](Cc1ccc2ccccc2c1)C(=O)N[C@@H]1CCC(=O)NCCCC[C@@H]2NC(=O)[C@H](CC(C)C)NC(=O)[C@@H](Cc3ccc4ccccc4c3)NC(=O)[C@H](CCCN=C(N)N)NC(=O)[C@H](CC(=O)NC[C@@H](C(N)=O)NC(=O)[C@@H]3CCCN3C2=O)NC(=O)[C@@H](Cc2cccnc2)NC1=O [listing 2 of 2 here] | 4
